Data: US20250360113A1, “ADMINISTRATION OF DHB TO INCREASE BENEFIT OF LOSING WEIGHT OF INTERMITTENT FASTING” (NANJING NUTRABUILDING BIO-TECH CO., LTD., priority 2023, published 2025)
“Also recorded” adds a separate entry of the source.

Tests used:
Type in all cases: in vivo, C57BL/6 male mice
[1] = Body weight and body composition of HFD obese mice given DHB with or without EODF
Method: 50 C57BL/6 male mice aged about 8 weeks, are randomly assigned to five study groups (GA, GB1, GB2, GB3, GB4) of ten mice each (one cage, n=5 per condition). Mice were maintained in a pathogen free condition under a strict 12 h light/dark cycle (0600/1800 h) with 12-15 cycles/hour of air change. Mice were provided with access to respective feed and water ad libitum as per experimental conditions. Mice were housed under controlled laboratory conditions of temperature and humidity at 23±2° C. and 50±10% RH, respectively.
Each study group consisted of ten animals, and treatment details of the individual study groups are given below: • Group A (GA, NC): Normal mice, maintained on normal diet (standard chow, 12% calories from fat; 23% calories from protein and 65% calories from carbohydrates) for 8 weeks, receiving neither EODF nor DHB treatment. • Group B1 (GB1): Obese mice, maintained on high fat diet (HFD, 60% calories from fat, 20% calories from protein, 20% calories from carbohydrate) for 8 weeks, receiving neither EODF nor DHB treatment. • Group B2 (GB2): Obese mice, maintained on HFD for 8 weeks, receiving only EODF and no DHB treatment. • Group B3 (GB3): Obese mice, maintained on HFD for 8 weeks, receiving only DHB treatment and no EODF. • Group B4 (GB4): Obese mice, maintained on HFD for 8 weeks, receiving DHB treatment and EODF combination.
The total experimental time is 19 weeks, including two periods: an elevent-week induction period and a subsequent eight-week treatment period.
HFD fed male mice in groups at 8 weeks of age were randomly assigned into either ad libitum, or EODF groups on a per cage basis. All cage bedding was changed to paper bedding for the duration of the model. Mice in the EODF group had total deprivation of food and ad libitum access to water from 1200 h-1200 h on alternate days with ad libitum food and water access. EODF cages were changed upon induction of fasting. Ad libitum control mice cages were changed every other day with fresh food provided.
DHB was administered daily via intragastric injection (i.g.) according to a level of 70 mg/kg body weight. Mice not receiving DHB were given orally with ultrapure water.
Each mouse's body weight is measured weekly during the study at 1200 h. Each animal's body composition was measured and recorded before the treatment and weekly during the study at 1200 h by Nuclear Magnetic Resonance Body Composition Analyzer in accordance with manufacturer's instruction. After sacrifice, subcutaneous fat and para-renal fat were weighed.

[2] = Insulin tolerance test (ITT); conditions: HFD obese mice
Method: 50 C57BL/6 male mice aged about 8 weeks, are randomly assigned to five study groups (GA, GB1, GB2, GB3, GB4) of ten mice each (one cage, n=5 per condition). Mice were maintained in a pathogen free condition under a strict 12 h light/dark cycle (0600/1800 h) with 12-15 cycles/hour of air change. Mice were provided with access to respective feed and water ad libitum as per experimental conditions. Mice were housed under controlled laboratory conditions of temperature and humidity at 23±2° C. and 50±10% RH, respectively. Each study group consisted of ten animals, and treatment details of the individual study groups are given below: • Group A (GA, NC): Normal mice, maintained on normal diet (standard chow, 12% calories from fat; 23% calories from protein and 65% calories from carbohydrates) for 8 weeks, receiving neither EODF nor DHB treatment. • Group B1 (GB1): Obese mice, maintained on high fat diet (HFD, 60% calories from fat, 20% calories from protein, 20% calories from carbohydrate) for 8 weeks, receiving neither EODF nor DHB treatment. • Group B2 (GB2): Obese mice, maintained on HFD for 8 weeks, receiving only EODF and no DHB treatment. • Group B3 (GB3): Obese mice, maintained on HFD for 8 weeks, receiving only DHB treatment and no EODF. • Group B4 (GB4): Obese mice, maintained on HFD for 8 weeks, receiving DHB treatment and EODF combination. DHB was administered daily via intragastric injection (i.g.) according to a level of 70 mg/kg body weight. Mice not receiving DHB were given orally with ultrapure water. Insulin tolerance test (ITT): To measure […], ITT were measured in the 6-h fasting mice (NC and HFD groups) by using a glucose analyzer. The glucose concentrations were measured by venous bleeding at 0, 15, 30, 60 and 120 min after an i.p. injection of human insulin at 0.75 U/kg. Towards the end of the final week of the study, ITT was performed for all mice (NC and HFD groups).

[3] = Normal-diet mice given DHB with or without EODF, tested by the same method; conditions: normal mice on normal diet
Method: 40 C57BL/6 male mice aged about 8 weeks, are randomly assigned to four study groups (GA1, GA2, GA3, GA4) of ten mice each (one cage, […]). Mice were maintained in a pathogen free condition under a strict 12 h light/dark cycle (0600/1800 h) with 12-15 cycles/hour of air change. Mice were provided with access to respective feed and water ad libitum as per experimental conditions. Mice were housed under controlled laboratory conditions of temperature and humidity at 23±2° C. and 50±10% RH, respectively. Each study group consisted of ten animals, and treatment details of the individual study groups are given below: • Group A1 (GA1, NC): Normal mice, maintained on normal diet (standard chow, 12% calories from fat; 23% calories from protein and 65% calories from carbohydrates) for 8 weeks, receiving neither EODF nor DHB treatment. • Group A2 (GA2): Normal mice, maintained on normal diet for 8 weeks, receiving only EODF and no DHB treatment. • Group A3 (GA3): Normal mice, maintained on normal diet for 8 weeks, receiving only DHB treatment and no EODF. • Group A4(GA4): Normal mice, maintained on normal diet for 8 weeks, receiving DHB treatment and EODF combination. Test according to the above method. […] This effect persists for as long as the test protocol is continued.

[4] = DHB 70 mg/kg i.g. daily + EODF combination vs EODF only
[5] = DHB + EODF combination vs EODF only

Which body fat [1, 4] does the source give for `COc1ccc2c(c1OC)CN1CCc3cc4c(cc3C1=C2)OCO4` [DHB, Dihydroberberine] here?
Its body fat is “reducing”.

And the body weight [1, 4]?
The body weight was “reducing; also recorded: greater effects on weight loss”.

What about the para-renal fat [1, 4] of the same compound?
Its para-renal fat is “reducing”.

What about the subcutaneous fat [1, 4] of the same compound?
Its subcutaneous fat is “reducing”.

And the body composition ([1]; DHB 70 mg/kg i.g. daily, 8 weeks, with or without EODF, vs same HFD with and without EODF, no DHB, FIGS. 1-4)?
The body composition was “greater reduction in body composition”.

What about the insulin levels ([2]; DHB 70 mg/kg i.g. daily vs no DHB with and without EODF, FIGS. 11-14) of the same compound?
The insulin levels was “greater reduction”.

What about the “improving the insulin tolerance” value [2, 5] of the same compound?
The value was “greater effects”.

And the “reducing the insulin levels” value [2, 5]?
The value was “greater effects”.

What about the insulin tolerance ([2]; human insulin 0.75 U/kg i.p., DHB vs no DHB with and without EODF) of the same compound?
Its insulin tolerance is “better”.

And the “effects (same tests as in obese mice)” value [3, 5]?
Its value is “greater effects”.

And the “effectiveness (same tests as in obese mice)” value ([3]; DHB vs no DHB with and without EODF)?
Its value is “greater effectiveness”.
